Test results from ChEMBL document CHEMBL1130973, “Synthesis and biological evaluation of 3-arylisoquinolines as antitumor agents” (Bioorg Med Chem Lett, 1998).
Values joined by “and” are separate entries in the source; they are usually repeats but may differ in a detail not shown here. Equal values may be shown once.

Tests used:
SK-MEL-2 [1] = assay: Tested for in vitro cytotoxicity against SK-MEL-2 (human melanoma) tumor cell line using sulforhodamine B (SRB) assay; not active (> 100 uM); format: functional, cell-based
HCT-15 [2] = assay: Tested for in vitro cytotoxicity against HCT 15 (human colon) tumor cell line using sulforhodamine B (SRB) assay; not active (> 100 uM); format: functional, cell-based
SK-OV-3 [3] = assay: Tested for in vitro cytotoxicity against SKOV-3 (human ovarian) tumor cell line using sulforhodamine B (SRB) assay; not active (> 100 uM); format: functional, cell-based
HCT-15 (Homo sapiens) [4] = assay: Tested for in vitro cytotoxicity against HCT 15 (human colon) tumor cell line using sulforhodamine B (SRB) assay; not active (> 100 uM)
A549 [5] = assay: Tested for in vitro cytotoxicity against A 549 (human lung) tumor cell line using sulforhodamine B (SRB) assay; not active (> 100 uM); format: functional, cell-based
SK-OV-3 [6] = assay: In vitro cytotoxicity against SKOV-3 (human ovarian) tumor cell line.; format: functional, cell-based
A549 [7] = assay: Tested for in vitro cytotoxicity against A 549 (human lung) tumor cell line using sulforhodamine B (SRB) assay; format: functional, cell-based
SK-MEL-2 [8] = assay: In vitro cytotoxicity against SK-MEL-2 (human melanoma) tumor cell line.; format: functional, cell-based
XF498 (Homo sapiens) = assay: In vitro cytotoxicity against XF498 (human CNS) tumor cell line.
HCT-15 (Homo sapiens) [9] = assay: In vitro cytotoxicity against HCT 15 (human colon) tumor cell line.
SK-MEL-2 [10] = assay: Tested for in vitro cytotoxicity against SK-MEL-2 (human melanoma) tumor cell line using sulforhodamine B (SRB) assay; format: functional, cell-based
HCT-15 [11] = assay: Tested for in vitro cytotoxicity against HCT 15 (human colon) tumor cell line using sulforhodamine B (SRB) assay; format: functional, cell-based
SK-OV-3 [12] = assay: Tested for in vitro cytotoxicity against SKOV-3 (human ovarian) tumor cell line using sulforhodamine B (SRB) assay; format: functional, cell-based
XF498 [13] = assay: Tested for in vitro cytotoxicity against XF498 (human CNS) tumor cell line using sulforhodamine B (SRB) assay; format: functional, cell-based
SK-MEL-2 [14] = assay: Tested for inhibitory activity against SK-MEL-2 (human melanoma) tumor cell line; format: functional, cell-based
Mus musculus = assay: In vivo anti tumor activity towards P388 leukemia in BDFl mouse expressed as T/C; format: functional
HCT-15 [15] = assay: In vitro cytotoxicity against HCT 15 (human colon) tumor cell line.; format: functional, cell-based
XF498 [16] = assay: In vitro cytotoxicity against XF498 (human CNS) tumor cell line.; format: functional, cell-based

Row | SMILES | IC50 (A549 [5]) | IC50 (SK-OV-3 [6]; Homo sapiens, SK-OV-3) [µM] | IC50 (A549 [7]; Homo sapiens, A549) [µM] | IC50 (SK-MEL-2 [8]; Homo sapiens, SK-MEL-2) [µM] | IC50 (XF498 (Homo sapiens)) [µM] | IC50 (HCT-15 (Homo sapiens) [9]) [µM] | also measured
1 | CN(C)c1cccc2c(O)nc(-c3ccccc3)cc12 | Not Active | – | – | – | – | – | IC50 (SK-MEL-2 [1]): Not Active; IC50 (HCT-15 [2]): Not Active; IC50 (SK-OV-3 [3]): Not Active; IC50 (HCT-15 (Homo sapiens) [4]): Not Active
2 | COc1ccc(-c2cc3c(N(C)C)cccc3c(O)n2)cc1 | Not Active | – | – | – | – | – | IC50 (SK-MEL-2 [1]): Not Active; IC50 (HCT-15 [2]): Not Active; IC50 (SK-OV-3 [3]): Not Active; IC50 (HCT-15 (Homo sapiens) [4]): Not Active
3 | Cc1ccc(-c2cc3ccccc3c(O)n2)cc1 | – | 13.8 | 30.2 | 5.01 | 42.7 | 7.08 | –
4 | Oc1nc(-c2ccc(C(F)(F)F)cc2)cc2ccccc12 | Not Active | 87.3 | – | – | – | – | IC50 (SK-MEL-2 [1]): Not Active; IC50 (HCT-15 [2]): Not Active; IC50 (HCT-15 (Homo sapiens) [4]): Not Active
5 | Cc1ccc2c(O)nc(-c3ccc(Cl)cc3)cc2c1 | – | – | – | – | – | – | IC50 (SK-MEL-2 [10]): 6.31 µM; IC50 (HCT-15 [11]): 11.2 µM; IC50 (SK-OV-3 [12]): 6.03 µM; IC50 (A549 [7]): 5.75 µM; IC50 (XF498 [13]): 11.2 µM
6 | CN1CCN(c2nc(-c3ccc(Cl)cc3)cc3c(N(C)C)cccc23)CC1 | – | 7.56 | 7.45 | 4.3 | 7.98 | 7.3 | –
7 | COc1ccc(-c2cc3cc(C)ccc3c(N3CCN(C)CC3)n2)cc1 | – | 7.94 | 7.41 | 3.71 | 9.33 | 7.41 | –
8 | Cc1ccc2c(O)nc(-c3ccccc3)cc2c1 | – | 1.7 | 1.32 | 1.58 | 5.13 | 0.76 | –
9 | Cc1ccc2c(N3CCN(C)CC3)nc(-c3ccc(Cl)cc3)cc2c1 | – | 5.75 | 3.19 | 2.4 | 6.03 | 4.07 | –
10 | Sc1nc(-c2ccccc2)cc2ccccc12 | Not Active | – | – | – | – | – | IC50 (SK-MEL-2 [1]): Not Active; IC50 (HCT-15 [2]): Not Active; IC50 (SK-OV-3 [3]): Not Active; IC50 (HCT-15 (Homo sapiens) [4]): Not Active
11 | Cc1ccc(-c2cc3cc(C)ccc3c(O)n2)cc1 | – | 4.9 | 5.62 | 7.76 | 35.5 | 11.2 | –
12 | Oc1nc(-c2ccc3c(c2)OCO3)cc2ccccc12 | Not Active | 77.6 | – | 25.1 | 17.8 | 2.69 | –
13 | C=Cc1cc2c(cc1-c1cc3ccc(OC)c(OC)c3c(=O)n1C)OCO2 | – | – | – | – | – | – | IC50 (SK-MEL-2 [14]): 0.0002 µM
14 | CN(C)c1cccc2c(O)nc(-c3ccc(Br)cc3)cc12 | Not Active | – | – | – | – | – | IC50 (SK-MEL-2 [1]): Not Active; IC50 (HCT-15 [2]): Not Active; IC50 (SK-OV-3 [3]): Not Active; IC50 (HCT-15 (Homo sapiens) [4]): Not Active
15 | Cc1ccc2c(O)nc(-c3ccccc3C)cc2c1 | – | 4.27 | 5.89 | 2.63 | 30.9 | 1.99 | –
16 | Cc1ccc(-c2cc3cc(C)ccc3c(N3CCN(C)CC3)n2)cc1 | – | 7.08 | 7.24 | 2.4 | 8.32 | 4.47 | –
17 | CN1CCN(c2nc(-c3ccccc3)cc3ccccc23)CC1 | – | 22.4 | 25.1 | 11.8 | 37.1 | 18.6 | T/C (Mus musculus): 160%
18 | Cc1ccc2c(N3CCN(C)CC3)nc(-c3ccccc3C)cc2c1 | – | 5.13 | 7.59 | 3.38 | 77.6 | 6.61 | –
19 | Cc1ccc(-c2cc3c(N(C)C)cccc3c(O)n2)cc1 | Not Active | – | – | – | – | – | IC50 (SK-MEL-2 [1]): Not Active; IC50 (HCT-15 [2]): Not Active; IC50 (SK-OV-3 [3]): Not Active; IC50 (HCT-15 (Homo sapiens) [4]): Not Active
20 | Oc1nc(-c2ccccc2)cc2ccccc12 | – | 2.45 | 5.75 | 2.57 | 5.89 | 1.38 | –
21 | COc1ccc2c(c[n+](C)c3c4cc5c(cc4ccc23)OCO5)c1O [FAGARIDINE] | – | 1.35 | 1.02 | 2.75 | 1.12 | 1.12 | –
22 | CN1CCN(c2nc(-c3ccccc3)cc3c(N(C)C)cccc23)CC1 | – | 11.2 | 10 | 7.08 | 19.9 | 9.55 | –
23 | Cc1ccc2c(S)nc(-c3ccccc3)cc2c1 | – | 34.7 | 8.51 | 19.5 | – | – | IC50 (HCT-15 [15]): 19.1 µM and 41.9 µM; IC50 (SK-OV-3 [6]; sk-ov-3): 56.2 µM; IC50 (A549 [7]; a549): 11 µM; IC50 (SK-MEL-2 [8]; sk-mel-2): 25.1 µM; IC50 (XF498 [16]): 9.12 µM and 75.9 µM
24 | COc1ccc(-c2cc3ccccc3c(S)n2)cc1 | Not Active | – | – | – | 83.2 | – | IC50 (SK-MEL-2 [1]): Not Active; IC50 (SK-OV-3 [3]): Not Active; IC50 (HCT-15 (Homo sapiens) [4]): Not Active
25 | COc1ccc(-c2cc3c(N(C)C)cccc3c(N3CCN(C)CC3)n2)cc1 | – | 13.2 | 1.82 | 3.98 | 6.17 | 10.7 | –
